Test results reported in the supplement of paper PMC10307832.

Assays:
Experiment in all cases: relative viability (nuclei count vs DMSO), 5 days (fraction); higher = more cells survive
[1] = test system: ChaGo-K-1
Method in brief: (§1)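 The day after seeding in 1536-well plates, lung cancer cell lines were treated by pin tool with a single drug, or with a fixed anchor-drug dose together with five library-drug doses (not always all listed) in √10 steps. After 5 days, a combined fix-and-stain solution (final 0.05% Triton X-100, 1% formaldehyde, 1 ug/ml Hoechst) was added. Nuclei counted on 4× images gave relative viability as treated counts over vehicle counts, reported as the median of duplicate plates.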

[2] = test system: EKVX
Method in brief: as §1

[3] = test system: EPLC-272H
Method in brief: as §1

[4] = test system: H3255
Method in brief: as §1

[5] = test system: HCC-827
Method in brief: as §1

[6] = test system: HOP-62
Method in brief: as §1

[7] = test system: LCLC-97TM1
Method in brief: as §1

[8] = test system: LK-2
Method in brief: as §1

[9] = test system: LU99A
Method in brief: as §1

[10] = test system: LXF-289
Method in brief: as §1

[11] = test system: NCI-H1355
Method in brief: as §1

[12] = test system: NCI-H1650
Method in brief: as §1

[13] = test system: NCI-H1993
Method in brief: as §1

[14] = test system: NCI-H2170
Method in brief: as §1

[15] = test system: NCI-H2228
Method in brief: as §1

[16] = test system: NCI-H2405
Method in brief: as §1

[17] = test system: NCI-H3122
Method in brief: as §1

[18] = test system: NCI-H441
Method in brief: as §1

[19] = test system: PC-3 [JPC-3]
Method in brief: as §1

[20] = test system: SK-LU-1
Method in brief: as §1

[21] = test system: SW 1573
Method in brief: as §1

[22] = test system: UMC-11
Method in brief: as §1

Cc1csc(=NC2CCCCC2)n1/N=C/c1ccc(O)c(O)c1O [MIM1] + CS(=O)(=O)N1CCN(Cc2cc3nc(-c4cccc5[nH]ncc45)nc(N4CCOCC4)c3s2)CC1 [Pictilisib] (partner 1 µM)
relative viability ([1]; first compound 0.2 µM): 0.876
relative viability ([1]; first compound 0.6325 µM): 0.629
relative viability ([1]; first compound 2 µM): 0.863
relative viability ([1]; first compound 6.325 µM): 0.644
relative viability ([1]; first compound 20 µM): 0.265
relative viability ([2]; first compound 0.2 µM): 0.477
relative viability ([2]; first compound 0.6325 µM): 0.365
relative viability ([2]; first compound 2 µM): 0.463
relative viability ([2]; first compound 6.325 µM): 0.322
relative viability ([2]; first compound 20 µM): 0.351
relative viability ([3]; first compound 0.2 µM): 0.355
relative viability ([3]; first compound 0.6325 µM): 0.339
relative viability ([3]; first compound 2 µM): 0.334
relative viability ([3]; first compound 6.325 µM): 0.3
relative viability ([3]; first compound 20 µM): 0.235
relative viability ([4]; first compound 0.2 µM): 0.429
relative viability ([4]; first compound 0.6325 µM): 0.54
relative viability ([4]; first compound 2 µM): 0.459
relative viability ([4]; first compound 6.325 µM): 0.478
relative viability ([4]; first compound 20 µM): 0.416
relative viability ([5]; first compound 0.2 µM): 0.985
relative viability ([5]; first compound 0.6325 µM): 0.936
relative viability ([5]; first compound 2 µM): 0.947
relative viability ([5]; first compound 6.325 µM): 0.618
relative viability ([5]; first compound 20 µM): 0.664
relative viability ([6]; first compound 0.2 µM): 0.803
relative viability ([6]; first compound 0.6325 µM): 0.437
relative viability ([6]; first compound 2 µM): 0.724
relative viability ([6]; first compound 6.325 µM): 0.642
relative viability ([6]; first compound 20 µM): 0.127
relative viability ([7]; first compound 0.2 µM): 0.22
relative viability ([7]; first compound 0.6325 µM): 0.178
relative viability ([7]; first compound 2 µM): 0.228
relative viability ([7]; first compound 6.325 µM): 0.18
relative viability ([7]; first compound 20 µM): 0.108
relative viability ([8]; first compound 0.2 µM): 0.581
relative viability ([8]; first compound 0.6325 µM): 0.534
relative viability ([8]; first compound 6.325 µM): 0.561
relative viability ([8]; first compound 20 µM): 0.269
relative viability ([9]; first compound 0.2 µM): 0.394
relative viability ([9]; first compound 0.6325 µM): 0.344
relative viability ([9]; first compound 2 µM): 0.303
relative viability ([9]; first compound 6.325 µM): 0.306
relative viability ([9]; first compound 20 µM): 0.233
relative viability ([10]; first compound 0.2 µM): 0.757
relative viability ([10]; first compound 0.6325 µM): 0.689
relative viability ([10]; first compound 2 µM): 0.823
relative viability ([10]; first compound 6.325 µM): 0.676
relative viability ([10]; first compound 20 µM): 0.522
relative viability ([11]; first compound 0.2 µM): 0.402
relative viability ([11]; first compound 0.6325 µM): 0.392
relative viability ([11]; first compound 2 µM): 0.435
relative viability ([11]; first compound 6.325 µM): 0.376
relative viability ([11]; first compound 20 µM): 0.234
relative viability ([12]; first compound 0.2 µM): 0.595
relative viability ([12]; first compound 0.6325 µM): 0.545
relative viability ([12]; first compound 2 µM): 0.434
relative viability ([12]; first compound 6.325 µM): 0.176
relative viability ([12]; first compound 20 µM): 0.167
relative viability ([13]; first compound 0.2 µM): 0.829
relative viability ([13]; first compound 0.6325 µM): 0.92
relative viability ([13]; first compound 2 µM): 0.827
relative viability ([13]; first compound 6.325 µM): 0.776
relative viability ([13]; first compound 20 µM): 0.764
relative viability ([14]; first compound 0.2 µM): 0.394
relative viability ([14]; first compound 0.6325 µM): 0.28
relative viability ([14]; first compound 2 µM): 0.321
relative viability ([14]; first compound 6.325 µM): 0.272
relative viability ([14]; first compound 20 µM): 0.238
relative viability ([15]; first compound 0.2 µM): 0.435
relative viability ([15]; first compound 0.6325 µM): 0.316
relative viability ([15]; first compound 2 µM): 0.4
relative viability ([15]; first compound 6.325 µM): 0.244
relative viability ([15]; first compound 20 µM): 0.158
relative viability ([16]; first compound 0.2 µM): 0.431
relative viability ([16]; first compound 0.6325 µM): 0.52
relative viability ([16]; first compound 2 µM): 0.506
relative viability ([16]; first compound 6.325 µM): 0.418
relative viability ([16]; first compound 20 µM): 0.546
relative viability ([17]; first compound 0.2 µM): 0.644
relative viability ([17]; first compound 0.6325 µM): 0.529
relative viability ([17]; first compound 2 µM): 0.701
relative viability ([17]; first compound 6.325 µM): 0.578
relative viability ([17]; first compound 20 µM): 0.394
relative viability ([18]; first compound 0.2 µM): 0.541
relative viability ([18]; first compound 0.6325 µM): 0.468
relative viability ([18]; first compound 2 µM): 0.539
relative viability ([18]; first compound 6.325 µM): 0.382
relative viability ([18]; first compound 20 µM): 0.147
relative viability ([19]; first compound 0.2 µM): 0.759
relative viability ([19]; first compound 0.6325 µM): 0.763
relative viability ([19]; first compound 2 µM): 0.707
relative viability ([19]; first compound 6.325 µM): 0.619
relative viability ([19]; first compound 20 µM): 0.459
relative viability ([20]; first compound 0.2 µM): 0.636
relative viability ([20]; first compound 0.6325 µM): 0.594
relative viability ([20]; first compound 2 µM): 0.625
relative viability ([20]; first compound 6.325 µM): 0.466
relative viability ([20]; first compound 20 µM): 0.354
relative viability ([21]; first compound 0.2 µM): 0.478
relative viability ([21]; first compound 0.6325 µM): 0.508
relative viability ([21]; first compound 2 µM): 0.592
relative viability ([21]; first compound 6.325 µM): 0.461
relative viability ([21]; first compound 20 µM): 0.35
relative viability ([22]; first compound 0.2 µM): 0.753
relative viability ([22]; first compound 0.6325 µM): 0.203
relative viability ([22]; first compound 2 µM): 0.853
relative viability ([22]; first compound 6.325 µM): 0.687
relative viability ([22]; first compound 20 µM): 0.17
